Laboratory results reported in the supplement of paper PMC8671470.

Key:
Conditions in all cases: 72 h
MV4-11 [1] = experiment: cell viability (% survival relative to DMSO control, bortezomib = 0%); higher = less cytotoxic
In short: (§1)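 Fifteen myeloid leukaemia cell lines were exposed to compounds at 1, 10, 100, 1000 or 10000 nM in 384-well plates for 72 h at 37 °C and 5% CO2. Viability was read by CellTiter-Glo luminescence and normalised, with vehicle as 100% and a 10 µM positive control as 0%. Values are percent survival averaged over duplicates.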

K-562 [2] = experiment: as above
In short: as §1

Mono-Mac-6 [3] = experiment: as above
In short: as §1

SHI-1 = experiment: as above
In short: as §1

THP-1 = experiment: as above
In short: as §1

BV-173 = experiment: as above
In short: as §1

NOMO-1 [4] = experiment: as above
In short: as §1

HEL = experiment: as above
In short: as §1

MOLM-13 = experiment: as above
In short: as §1

ML-2 = experiment: as above
In short: as §1

HL-60 [5] = experiment: as above
In short: as §1

KU-812 [6] = experiment: as above
In short: as §1

LAMA-84 = experiment: as above
In short: as §1

KG-1 = experiment: as above
In short: as §1

KCL-22 = experiment: as above
In short: as §1

MV4-11 [7] = tested on: MV4-11
In short: (§2)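 The IC50 was read from log-logistic dose–response fits. Fifteen myeloid leukaemia lines were exposed for 72 h at 37 °C with 5% CO2 to five tenfold doses from 1 to 10,000 nM in duplicate. ATP luminescence, normalised to vehicle and to a 10 µM positive control, was fitted with four parameters.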

K-562 [8] = tested on: K-562
In short: as §2

Mono-Mac-6 [9] = tested on: Mono-Mac-6
In short: as §2

NOMO-1 [10] = tested on: NOMO-1
In short: as §2

KU-812 [11] = tested on: KU-812
In short: as §2

HL-60 [12] = experiment: cell viability (% survival relative to DMSO control); higher = less cytotoxic
In short: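 HL-60 cells in RPMI 1640 with 10% FBS were rescreened against the full library on 384-well plates at five tenfold concentrations, 1–10,000 nM, in duplicate. Each screen was run with DMSO or 100 nM of one of three metabolic inhibitors, for 72 h at 37 °C, 5% CO2. Viability was read by CellTiter-Glo and normalised to DMSO and 10 μM proteasome-inhibitor wells. Where given, area under the curve came from four-parameter log-logistic fits (drc, PharmacoGx).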

Cc1ccccc1C(C(=O)NC1CCCCC1)N(C(=O)Cn1ccnc1C)c1cccc(F)c1 (stereo not given) [AGI-5198]
cell viability [%]
Conditions	1 nM	10 nM	100 nM	1000 nM	10000 nM
BV-173	88.3	103	107	104	95.2
HEL	95.4	104	106	99.4	101
HL-60 [5]	107	106	99.5	102	116
K-562 [2]	98.5	101	103	96.5	104
KCL-22	101	114	132	111	104
KG-1	102	100	128	94.9	94.5
KU-812 [6]	97.7	105	109	92.1	103
LAMA-84	97.6	104	115	97.2	99.9
ML-2	96.8	106	122	103	95.1
MOLM-13	87	124	108	80	118
MV4-11 [1]	94	102	91.5	91.4	115
Mono-Mac-6 [3]	92.8	107	100	104	99
NOMO-1 [4]	96	103	107	100	102
SHI-1	94.9	92.7	107	96.2	99.1
THP-1	96.9	100	107	101	100

Conditions	IC50 (cell viability) [µM]
K-562 [8]	> 10
KU-812 [11]	> 10
MV4-11 [7]	> 10
Mono-Mac-6 [9]	> 10
NOMO-1 [10]	> 10

cell viability [%], HL-60 [12]
Conditions	0.001 µM	0.01 µM	0.1 µM	1 µM	10 µM
co-treatment: AZD3965 100 nM	95.1	98.5	93.2	91.8	100.5
co-treatment: DMSO vehicle	98.5	106	104	99.4	95.7
co-treatment: GSK2194069 100 nM	103	101	88.5	101	106
co-treatment: pictilisib 100 nM	98.4	114	103	102	104
